28 compounds from patent US7973069B2 (PTC Therapeutics, Inc., priority 2004, dated 2011) can be followed below.

“And” between values parts separate entries of the source, which are not always exact repeats. Equal entries are not always repeated.

For orientation: IC50 means the concentration at which inhibition is half-maximal.

The subject of the assay is HCV replicon. In kind it is cell-based.
Turning to `CCOc1ccc2c(C#N)c(-c3ccc(NC(=O)OC4CCCC4)cc3)n(C3CCCC3)c2c1` [Compound 1211], the IC50 is < 0.5 µM.

With `CC(C)NC(=O)Nc1ccc(-c2c(C#N)c3ccc(OCc4cccnc4)cc3n2C2CCC2)cc1` [Compound 1212], the IC50 is < 0.5 µM. Consider `CCOc1ccc2c(C#N)c(-c3ccc(NC(=O)NC4CCCC4)cc3)n(C3CCCC3)c2c1` [Compound 1214], for which the 50% inhibitory concentration (IC50) is < 0.5 µM. The same measure for `CCOc1ccc2c(C#N)c(-c3ccc(NC(=O)OC4CCOC4)cc3)n(C3CCC3)c2c1` (stereo not shown) [Compound 1215]: < 0.5 µM.

The compound `CCOc1ccc2c(C#N)c(-c3ccc(NC(=O)OC4CCOCC4)cc3)n(C3CCC3)c2c1` [Compound 1216] came in with an IC50 of 0.5 to 2 µM. Next, `CC(C)OC(=O)Nc1ccc(-c2c(C#N)c3ccc(OCc4cccnc4)cc3n2C2CCC2)cc1` [Compound 1218]: < 0.5 µM; `N#Cc1c(-c2ccc(NC(=O)OC3CCCC3)cc2)n(C2CCC2)c2cc(OCc3cccnc3)ccc12` [Compound 1219]: < 0.5 µM. The same measure for `CC(C)OC(=O)Nc1ccc(-c2c(C#N)c3ccc(OCc4ccccn4)cc3n2C2CCC2)cc1` [Compound 1220]: < 0.5 µM; for `CCOc1ccc2c(C#N)c(-c3ccc(NC(=O)NC(C)C)cc3)n(C3CCCC3)c2c1` [Compound 1221]: < 0.5 µM. Next, `CCOc1ccc2c(C#N)c(-c3ccc(NC(=O)OC4CCCC4)cc3)n(C(C)CC)c2c1` (stereo not shown) [Compound 1222]: 0.5 to 2 µM; `CCOc1ccc2c(c1)c(C#N)c(-c1ccc(NC(=O)NC(C)C)cc1)n2C1CCC1` [Compound 1223]: < 0.5 µM; `CCOc1ccc2c(c1)c(C#N)c(-c1ccc(NC(=O)NC(C)C)cc1)n2C1CCC1` [Compound 1224]: 0.5 to 2 µM. As to `CCCCNC(=O)Nc1ccc(-c2c(C#N)c3cc(OCC)ccc3n2C2CCC2)cc1` [Compound 1225], the concentration for half-maximal inhibition (IC50) is 0.5 to 2 µM and < 0.5 µM. As for `CCOc1ccc2c(c1)c(C#N)c(-c1ccc(NC(=O)NC3CCCC3)cc1)n2C1CCC1` [Compound 1226], the 50% inhibitory concentration (IC50) is < 0.5 µM.

`CCOc1ccc2c(c1)c(C#N)c(-c1ccc(NC(=O)NCCc3ccccc3)cc1)n2C1CCC1` [Compound 1227]: the IC50 is < 0.5 µM. Next, `CCOc1ccc2c(c1)c(C#N)c(-c1ccc(NS(=O)(=O)CC)cc1)n2C1CCC1` [Compound 1228]: 0.5 to 2 µM; `CCCS(=O)(=O)Nc1ccc(-c2c(C#N)c3cc(OCC)ccc3n2C2CCC2)cc1` [Compound 1229]: 0.5 to 2 µM; `COc1ccc2c(c1)c(C#N)c(-c1ccc(NS(=O)(=O)C(C)C)cc1)n2C1CCC1` [Compound 1231]: 0.5 to 2 µM. The same measure for `COc1ccc2c(c1)c(C#N)c(-c1ccc(NC(=O)OC(C)C)cc1)n2C1CCC1` [Compound 1232]: < 0.5 µM and 0.5 to 2 µM; for `COc1ccc2c(c1)c(C#N)c(-c1ccc(NC(=O)OCC(C)(C)C)cc1)n2C1CCC1` [Compound 1233]: < 0.5 µM; for `CCCS(=O)(=O)Nc1ccc(-c2c(C#N)c3ccc(OC)cc3n2C2CC2)cc1` [Compound 1235]: 0.5 to 2 µM. Regarding `CCOc1ccc2c(C#N)c(-c3ccc(NC(=O)OC(C)C)cc3)n(C3CC3)c2c1` [Compound 1236], the IC50 was < 0.5 µM. The same measure for `CCOc1ccc2c(C#N)c(-c3ccc(N(CC)C(=O)OC(C)C)cc3)n(C3CC3)c2c1` [Compound 1237]: 0.5 to 2 µM. The same measure for `CCOc1ccc2c(C#N)c(-c3ccc(NC(=O)OCC4CCCO4)cc3)n(C3CCC3)c2c1` (stereo not shown) [Compound 1240]: < 0.5 µM. The same measure for `CCCOc1ccc2c(C#N)c(-c3ccc(NC(=O)OCC4CC4)cc3)n(C(C)C)c2c1` [Compound 1241]: < 0.5 µM; for `CCCOc1ccc2c(C#N)c(-c3ccc(NC(=O)OC(C)C4CC4)cc3)n(C(C)C)c2c1` (stereo not shown) [Compound 1242]: < 0.5 µM; for `CCCOc1ccc2c(C#N)c(-c3ccc(NC(=O)OCC4(C)CC4)cc3)n(C(C)C)c2c1` [Compound 1243]: < 0.5 µM. On to `CCCOc1ccc2c(C#N)c(-c3ccc(NC(=O)OC(C)C4CC4)cc3)n(C(C)C)c2c1` (stereo not shown) [Compound 1244], for which the IC50 is < 0.5 µM.
